Patent US9072737B2, “tPA mutant in the treatment of acute brain injury and neurodegenerative disorders” (HADASIT MEDICAL RESEARCH SERVICES & DEVELOPMENT LTD., priority 2008, dated 2015)

System: Blood Brain Barrier (BBB)
Assay: Blood brain barrier permeability, Evans blue uptake into brain
Format: in vivo, mice
Conditions: peptide 1 mg/kg i.p. together with tPA 1 mg/kg; FIG. 4A
Procedure: The uptake of Evans blue dye into a brain tissue served as a marker to for quantifying disruption of the blood-brain barrier and increase in permeability of the BBB. […] Data was expressed as absorbance at 620 nm per gram of tissue. The mean±SEM of data from 8-9 animals/group are shown.
FIG. 4A. Mice were injected i.p. with 25 μl of saline or saline containing either WT-tPA or mtPA (1 mg/kg each) alone or together with PAI-1 derived 18 amino acids (aa) (as denoted by SEQ ID NO. 8) or 6 aa (as denoted by SEQ ID NO. 3) peptides (1 mg/kg each). Ten minutes later, the mice were given an i.v. injection of 2% Evans blue (EB) in saline. One hour after injection of dye, organs were cleared of blood by transcardiac perfusion. […] Extruded dye was quantified by absorbance at 620 nm. The figure presents a histogram illustration of the absorbance of EB at […] per gram of tissue. […]
To determine the effect of injection of tPA-S^481A on BBB function, anesthetized mice were injected i.p. with 25 μl of saline or saline containing tPA or tPA mutant (tPA-Ser^481Ala) (1 mg/kg each), followed by the intravenous injection of 2% Evans blue in saline. Evans blue was quantified by absorbance at 620 nm.
Plasminogen activator inhibitor-1 (PAI-1) is recognized as the inhibitor of tPA. […] Extruded dye was quantified by absorbance at 620 nm. Data are expressed in FIG. 4A as absorbance per gram of tissue.

EEIIMD (listed as Homo sapiens) [reference compound]
inhibition of recombinant tPA-induced BBB permeability: failed to decrease
